Assays:
PANDI (fall panicum) = assay: Pre-plant incorporated (PPI) herbicidal activity, warm season; format: in vivo, Panicum dichotomiflorum; conditions: for Percent inhibition PANDI: PPI application; for PPI activity GR80, PANDI: pre-plant incorporated, lowest tested rate with 80% or greater inhibition, about 14 days
Method: (§1) In another set of tests, the pre-plant incorporated (PPI) activity of compounds of this invention was evaluated on the same species as for the pre-emergence tests described above. In the PPI tests the following procedure, designed to simulate PPI application, was used.
(§2) A pre-prepared topsoil mixture (described above) was placed in a pot and compacted to a depth of 1.0 to 1.25 cm from the top of the pot. Seeds of each of several monocotyledonous and dicotyledonous annual plant species were placed on top of the soil. A sufficient quantity of soil to cover the seeds and level fill the pot was weighed into an open container. A known amount of the test compound was dissolved or suspended in an organic solvent and applied by spraying to this cover soil. The cover soil was thoroughly mixed to distribute the test compound throughout the cover soil, and was then applied as a cover layer over the seeds. Untreated soil was used as a cover layer for control pots. After treatment the plants were placed in a greenhouse where they received 0.64 cm of overhead irrigation. All subsequent watering consisted of a light overhead mist and/or subirrigation as needed for germination and growth. Tables 9 and 10 below relate to warm season plant species which were placed after pre-emergence treatment in a greenhouse with a 30/21° C. day/night temperature regime. Tables 11 and 12 below relates to cool season plant species placed after pre-emergence treatment in a greenhouse or growth chamber with an 18/13° C. day/night temperature regime. Only the compounds of Examples 1, 6, 8, 11, 13 and 15-20 were included in PPI tests.
(§3) Approximately 14 days after planting and treating, the plants were observed and herbicidal efficacy recorded as percent inhibition by comparison with untreated plants.

SETVI (green foxtail) [1] = assay: Pre-plant incorporated (PPI) herbicidal activity, cool season; format: in vivo, Setaria viridis; conditions: for PPI activity GR80, SETVI: pre-plant incorporated, lowest tested rate with 80% or greater inhibition, about 14 days
Method: as §1, §2, §3

[2] = test system: SORHA (johnsongrass (seedling)); assay: Pre-plant incorporated (PPI) herbicidal activity, warm season; format: in vivo, Sorghum halepense; conditions: for PPI activity GR80, SORHA: pre-plant incorporated, lowest tested rate with 80% or greater inhibition, about 14 days
Method: as §1, §2, §3

[3] = test system: GALAP (catchweed bedstraw); assay: Pre-emergence herbicidal activity, cool season; format: in vivo, Galium aparine; conditions: lowest tested rate with 80% or greater inhibition; rates 300, 100, 30, 10 g/ha; about 14 days
How it was run: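 Seeds sown in sterilised fertilised topsoil received surface-applied compound in 50:50 acetone/water, typically at 300, 100, 30 and 10 g/ha, then greenhouse-grown at 30/21° C (warm-season species) or 18/13° C (cool-season species). Percent inhibition versus untreated plants was scored at about 14 days, giving GR80; an asterisk marks activity short of 80% at the top rate.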

BROTE (downy brome) = assay: Pre-plant incorporated (PPI) herbicidal activity, cool season; format: in vivo, Bromus tectorum; conditions: for PPI activity GR80, BROTE: pre-plant incorporated, lowest tested rate with 80% or greater inhibition, about 14 days
Method: as §1, §2, §3

[4] = test system: BRAPP (broadleaf signalgrass); assay: Pre-emergence herbicidal activity, warm season; format: in vivo, Brachiaria platyphylla; conditions: GR80 = lowest tested rate (300, 100, 30, 10 g/ha) with 80% or greater inhibition; approx. 14 days after treating; 30/21° C.
How it was run: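 GR80 values derive from percent inhibition relative to untreated plants, read roughly 14 days after sowing and pre-emergence soil-surface treatment (compound in 50:50 acetone/water; rates typically 10, 30, 100, 300 g/ha). Warm-season weeds grew at 30/21° C day/night, cool-season ones at 18/13° C; an asterisk marks activity without reaching 80% at the highest rate.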

SETVI (green foxtail) [5] = assay: Post-emergence herbicidal activity, cool season; format: in vivo, Setaria viridis; conditions: abraded plants sprayed at 300, 100, 30 and 10 g/ha; about 14 days after treatment
How it was run: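 Abraded seedling foliage receives a spray of test compound at four rates, 300 to 10 g/ha, in 50:50 acetone/water at 3,100 l/ha. After about 14 days in an 18/13° C. day/night greenhouse, inhibition is scored against abraded untreated controls and expressed as GR80.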

[6] = weed, PPI application, 100 g/ha
[7] = weed, PPI application, 300 g/ha
[8] = weed, PPI application, 900 g/ha

SMILES | Percent inhibition PANDI (PANDI (fall panicum); 30 g/ha) | Percent inhibition PANDI (PANDI (fall panicum); 100 g/ha) | Percent inhibition PANDI (PANDI (fall panicum); 300 g/ha) | Percent inhibition PANDI (PANDI (fall panicum); 900 g/ha) | Percent inhibition SETVI (SETVI (green foxtail) [1]; weed, PPI application, 30 g/ha) | Percent inhibition SETVI (SETVI (green foxtail) [1]; [6]) | Percent inhibition SETVI (SETVI (green foxtail) [1]; [7]) | Percent inhibition SETVI (SETVI (green foxtail) [1]; [8]) | Percent inhibition SORHA ([2]; PPI application, 30 g/ha) | Percent inhibition SORHA ([2]; PPI application, 100 g/ha) | Percent inhibition SORHA ([2]; PPI application, 300 g/ha) | Percent inhibition SORHA ([2]; PPI application, 900 g/ha) | Pre-emergence activity GR80, GALAP [3] | Percent inhibition BROTE (BROTE (downy brome); weed, PPI application, 30 g/ha) | Percent inhibition BROTE (BROTE (downy brome); [6]) | Percent inhibition BROTE (BROTE (downy brome); [7]) | Percent inhibition BROTE (BROTE (downy brome); [8]) | Pre-emergence activity (GR80) BRAPP [4] | Post-emergence activity GR80, SETVI (SETVI (green foxtail) [5]) | Percent inhibition BROTE (BROTE (downy brome); weed, PPI application, 10 g/ha) | also measured
CCN(CC)C(=O)n1cnc(S(=O)(=O)C(F)(F)SC)n1 [Example 9] | 100% | 100% | 100% | 100% | 99% | 100% | 100% | 100% | 100% | 100% | 100% | 100% | [empty] | 0% | 0% | 20% | 95% | 300 g/ha | [empty] | – | –
CCN(CC)C(=O)n1cnc(S(=O)(=O)C(F)(F)SCc2ccccc2)n1 [Example 10] | 50% | 100% | 100% | 100% | 0% | 90% | 100% | 100% | 0% | 50% | 100% | 100% | [empty] | 0% | 10% | 35% | 60% | 300 g/ha | [empty] | 0% | Percent inhibition PANDI (PANDI (fall panicum); 10 g/ha): 0%; Percent inhibition SORHA ([2]; PPI application, 10 g/ha): 0%
CCN(CC)C(=O)n1cnc(S(=O)(=O)C(F)(F)SCCOC)n1 [Example 13] | 100% | 90% | 100% | 100% | 95% | 100% | 100% | 100% | 100% | 90% | 100% | 100% | 100 g/ha | 0% | 10% | 20% | 85% | 300 g/ha | [empty] | 0% | Percent inhibition PANDI (PANDI (fall panicum); 10 g/ha): 40%; PPI activity GR80, PANDI (PANDI (fall panicum)): 30 g/ha; PPI activity GR80, SETVI (SETVI (green foxtail) [1]): 100 g/ha; Percent inhibition SETVI (SETVI (green foxtail) [1]; weed, PPI application, 10 g/ha): 30%; Percent inhibition SORHA ([2]; PPI application, 10 g/ha): 30%; PPI activity GR80, SORHA [2]: 100 g/ha; PPI activity GR80, BROTE (BROTE (downy brome)): * (activity observed, at least at highest rate, but <80% inhibition)
C=CCC(F)(F)S(=O)(=O)c1ncn(C(=O)N(CC)CC)n1 [Example 17, 1-(N,N-diethylcarbamoyl)-3-[(1,1-difluoro-3-butenyl)sulfonyl]-1,2,4-triazole] | – | – | – | – | – | – | – | – | – | – | – | – | 100 g/ha | – | – | – | – | 300 g/ha | [empty] | – | PPI activity GR80, PANDI (PANDI (fall panicum)): 300 g/ha; inhibition at 10 g/ha (SETVI (green foxtail) [1]; Setaria viridis, weed, PPI application, 10 g/ha, read-out: Percent inhibition SETVI): 40%; inhibition at 30 g/ha (SETVI (green foxtail) [1]; Setaria viridis, weed, PPI application, 30 g/ha, read-out: Percent inhibition SETVI): 70%; inhibition at 100 g/ha (SETVI (green foxtail) [1]; Setaria viridis, weed, PPI application, 100 g/ha, read-out: Percent inhibition SETVI): 70%; inhibition at 300 g/ha (SETVI (green foxtail) [1]; Setaria viridis, weed, PPI application, 300 g/ha, read-out: Percent inhibition SETVI): 100%; inhibition at 900 g/ha (SETVI (green foxtail) [1]; Setaria viridis, weed, PPI application, 900 g/ha, read-out: Percent inhibition SETVI): 100%; PPI activity GR80, SETVI (SETVI (green foxtail) [1]): 30 g/ha; inhibition at 10 g/ha ([2]; Sorghum halepense, PPI application, 10 g/ha, read-out: Percent inhibition SORHA): 95%; inhibition at 30 g/ha ([2]; Sorghum halepense, PPI application, 30 g/ha, read-out: Percent inhibition SORHA): 60%; inhibition at 100 g/ha ([2]; Sorghum halepense, PPI application, 100 g/ha, read-out: Percent inhibition SORHA): 100%; inhibition at 300 g/ha ([2]; Sorghum halepense, PPI application, 300 g/ha, read-out: Percent inhibition SORHA): 100%; inhibition at 900 g/ha ([2]; Sorghum halepense, PPI application, 900 g/ha, read-out: Percent inhibition SORHA): 100%; PPI activity GR80, SORHA [2]: 10 g/ha; inhibition at 10 g/ha (BROTE (downy brome); Bromus tectorum, weed, PPI application, 10 g/ha, read-out: Percent inhibition BROTE): 0%; inhibition at 30 g/ha (BROTE (downy brome); Bromus tectorum, weed, PPI application, 30 g/ha, read-out: Percent inhibition BROTE): 0%; inhibition at 100 g/ha (BROTE (downy brome); Bromus tectorum, weed, PPI application, 100 g/ha, read-out: Percent inhibition BROTE): 20%; inhibition at 300 g/ha (BROTE (downy brome); Bromus tectorum, weed, PPI application, 300 g/ha, read-out: Percent inhibition BROTE): 30%; inhibition at 900 g/ha (BROTE (downy brome); Bromus tectorum, weed, PPI application, 900 g/ha, read-out: Percent inhibition BROTE): 95%; PPI activity GR80, BROTE (BROTE (downy brome)): 100 g/ha
C=C(CC(F)(F)S(=O)(=O)c1ncn(C(=O)N(CC)CC)n1)C[Si](C)(C)C [Example 20] | – | – | – | – | 70% | 40% | 100% | 100% | 0% | 20% | 80% | 80% | [empty] | 0% | 0% | 40% | 50% | 300 g/ha | [empty] | 0% | PPI activity GR80, PANDI (PANDI (fall panicum)): 100 g/ha; PPI activity GR80, SETVI (SETVI (green foxtail) [1]): 30 g/ha; Percent inhibition SETVI (SETVI (green foxtail) [1]; weed, PPI application, 10 g/ha): 0%; PPI activity GR80, SORHA [2]: 100 g/ha; PPI activity GR80, BROTE (BROTE (downy brome)): 300 g/ha
